Measurements reported in ChEMBL document CHEMBL5303573, “Mapping human microbiome drug metabolism by gut bacteria and their genes” (Nature, 2019).

Experiments:
[1] = The drug is tested on Clostridium sporogenes strain: ATCC15579 for biotransformation. The drug concentrations were measured before and after a 12-h incubation by liquid-chromatography-coupled mass spectrometry (LC–MS); settings: 2 µM
[2] = The drug is tested on Alistipes indistinctus strain: DSM22520 for biotransformation. The drug concentrations were measured before and after a 12-h incubation by liquid-chromatography-coupled mass spectrometry (LC–MS); settings: 2 µM
[3] = The drug is tested on Edwardsiella tarda strain: ATCC23685 for biotransformation. The drug concentrations were measured before and after a 12-h incubation by liquid-chromatography-coupled mass spectrometry (LC–MS); settings: 2 µM
[4] = The drug is tested on Eggerthella lenta strain: ATCC25559 for biotransformation. The drug concentrations were measured before and after a 12-h incubation by liquid-chromatography-coupled mass spectrometry (LC–MS); settings: 2 µM
[5] = The drug is tested on Bacteroides uniformis strain: ATCC8492 for biotransformation. The drug concentrations were measured before and after a 12-h incubation by liquid-chromatography-coupled mass spectrometry (LC–MS); settings: 2 µM
[6] = The drug is tested on Bacteroides fragilis strain: HMW610 for biotransformation. The drug concentrations were measured before and after a 12-h incubation by liquid-chromatography-coupled mass spectrometry (LC–MS); settings: 2 µM
[7] = The drug is tested on Odoribacter splanchnicus strain: fecal isolate for biotransformation. The drug concentrations were measured before and after a 12-h incubation by liquid-chromatography-coupled mass spectrometry (LC–MS); settings: 2 µM
[8] = anaerostipes sp., 12 h, 2 µM
Description: The drug is tested on Anaerostipes sp. strain: fecal isolate for biotransformation. The drug concentrations were measured before and after a 12-h incubation by liquid-chromatography-coupled mass spectrometry (LC–MS)

[9] = The drug is tested on Anaerococcus hydrogenalis strain: DSM7454 for biotransformation. The drug concentrations were measured before and after a 12-h incubation by liquid-chromatography-coupled mass spectrometry (LC–MS); settings: 2 µM
[10] = The drug is tested on Parabacteroides merdae strain: ATCC43184 for biotransformation. The drug concentrations were measured before and after a 12-h incubation by liquid-chromatography-coupled mass spectrometry (LC–MS); settings: 2 µM
[11] = bacteroides fragilis, 12 h, 2 µM
Description: The drug is tested on Bacteroides fragilis strain: NCTC 9343 for biotransformation. The drug concentrations were measured before and after a 12-h incubation by liquid-chromatography-coupled mass spectrometry (LC–MS)

[12] = The drug is tested on Bacteroides pectinophilus strain: ATCC43243 for biotransformation. The drug concentrations were measured before and after a 12-h incubation by liquid-chromatography-coupled mass spectrometry (LC–MS); settings: 2 µM
[13] = The drug is tested on Blautia luti strain: DSM14534 for biotransformation. The drug concentrations were measured before and after a 12-h incubation by liquid-chromatography-coupled mass spectrometry (LC–MS); format: ADME; parameters: dose 2 uM, timepoint 0 vs 12 hours; settings: 2 µM
[14] = The drug is tested on Clostridium scindens strain: ATCC35704 for biotransformation. The drug concentrations were measured before and after a 12-h incubation by liquid-chromatography-coupled mass spectrometry (LC–MS); settings: 2 µM
[15] = bacteroides thetaiotaomicron, 12 h, 2 µM
Description: The drug is tested on Bacteroides thetaiotaomicron strain: 3731 for biotransformation. The drug concentrations were measured before and after a 12-h incubation by liquid-chromatography-coupled mass spectrometry (LC–MS)

[16] = The drug is tested on Bacteroides ovatus strain: ATCC8483 for biotransformation. The drug concentrations were measured before and after a 12-h incubation by liquid-chromatography-coupled mass spectrometry (LC–MS); settings: 2 µM
[17] = The drug is tested on Clostridium symbiosum strain: ATCC14940 for biotransformation. The drug concentrations were measured before and after a 12-h incubation by liquid-chromatography-coupled mass spectrometry (LC–MS); settings: 2 µM
[18] = The drug is tested on Coprococcus comes strain: ATCC27758 for biotransformation. The drug concentrations were measured before and after a 12-h incubation by liquid-chromatography-coupled mass spectrometry (LC–MS); format: ADME; parameters: dose 2 uM, timepoint 0 vs 12 hours; settings: 2 µM
[19] = The drug is tested on Bacteroides vulgatus strain: ATCC8482 for biotransformation. The drug concentrations were measured before and after a 12-h incubation by liquid-chromatography-coupled mass spectrometry (LC–MS); settings: phocaeicola vulgatus, 2 µM
[20] = The drug is tested on Subdoligranulum variabile strain: DSM15176 for biotransformation. The drug concentrations were measured before and after a 12-h incubation by liquid-chromatography-coupled mass spectrometry (LC–MS); settings: 2 µM

SMILES | Bacterial Biotransformation [1] | Bacterial Biotransformation [2] | Bacterial Biotransformation [3] | Bacterial Biotransformation [4] | Bacterial Biotransformation [5] | Bacterial Biotransformation [6] | Bacterial Biotransformation [7] | Bacterial Biotransformation [8] | Bacterial Biotransformation [9] | Bacterial Biotransformation [10] | Bacterial Biotransformation [11] | Bacterial Biotransformation [12] | Bacterial Biotransformation [13] | Bacterial Biotransformation [14] | Bacterial Biotransformation [15] | Bacterial Biotransformation [16] | Bacterial Biotransformation [17] | Bacterial Biotransformation [18] | Bacterial Biotransformation [19] | Bacterial Biotransformation [20]
CC(C)NCC(O)COc1ccc(CCOCC2CC2)cc1 (stereo not given) [BETAXOLOL] | Compound NOT metabolized | Compound NOT metabolized | Compound NOT metabolized | Compound NOT metabolized | Compound NOT metabolized | Compound NOT metabolized | Compound NOT metabolized | Compound NOT metabolized | Compound NOT metabolized | Compound NOT metabolized | Compound NOT metabolized | Compound NOT metabolized | Compound NOT metabolized | Compound NOT metabolized | Compound NOT metabolized | Compound NOT metabolized | Compound NOT metabolized | Compound NOT metabolized | – | –
CC(C)(Oc1ccc(CCNC(=O)c2ccc(Cl)cc2)cc1)C(=O)O [BEZAFIBRATE] | Compound metabolized | Compound NOT metabolized | Compound metabolized | Compound metabolized | Compound metabolized | Compound metabolized | Compound metabolized | Compound metabolized | Compound metabolized | Compound metabolized | Compound metabolized | Compound metabolized | Compound metabolized | Compound metabolized | Compound metabolized | Compound metabolized | Compound metabolized | Compound metabolized | Compound metabolized | –
CN1C(=O)CCS(=O)(=O)C1c1ccc(Cl)cc1 (stereo not given) [CHLORMEZANONE] | Compound NOT metabolized | Compound metabolized | Compound NOT metabolized | Compound NOT metabolized | Compound NOT metabolized | Compound NOT metabolized | Compound NOT metabolized | Compound NOT metabolized | Compound NOT metabolized | – | Compound NOT metabolized | Compound NOT metabolized | – | Compound NOT metabolized | – | Compound NOT metabolized | Compound NOT metabolized | – | Compound metabolized | –
Br.CN(C)CCCC1(c2ccc(F)cc2)OCc2cc(C#N)ccc21 (stereo not given) [CITALOPRAM HYDROBROMIDE] | Compound NOT metabolized | Compound NOT metabolized | Compound NOT metabolized | Compound NOT metabolized | – | Compound NOT metabolized | – | Compound NOT metabolized | Compound NOT metabolized | Compound NOT metabolized | Compound NOT metabolized | Compound NOT metabolized | Compound NOT metabolized | Compound NOT metabolized | Compound NOT metabolized | Compound NOT metabolized | Compound NOT metabolized | Compound NOT metabolized | Compound NOT metabolized | –
CN1C[C@H](C(=O)N[C@]2(C)O[C@@]3(O)[C@@H]4CCCN4C(=O)[C@H](Cc4ccccc4)N3C2=O)C=C2c3cccc4[nH]cc(c34)C[C@H]21.CN1C[C@H](C(=O)N[C@]2(C)O[C@@]3(O)[C@@H]4CCCN4C(=O)[C@H](Cc4ccccc4)N3C2=O)C=C2c3cccc4[nH]cc(c34)C[C@H]21.O=C(O)C(O)C(O)C(=O)O [ERGOTAMINE TARTRATE] | Compound metabolized | Compound NOT metabolized | Compound metabolized | Compound NOT metabolized | Compound metabolized | – | Compound metabolized | Compound metabolized | Compound metabolized | Compound metabolized | Compound metabolized | Compound metabolized | Compound metabolized | Compound metabolized | Compound metabolized | Compound metabolized | Compound metabolized | – | Compound metabolized | –
CC#C[C@]1(O)CC[C@H]2[C@@H]3CCC4=CC(=O)CCC4=C3[C@@H](c3ccc(N(C)C)cc3)C[C@@]21C [MIFEPRISTONE] | – | – | Compound NOT metabolized | Compound NOT metabolized | Compound NOT metabolized | Compound metabolized | Compound NOT metabolized | Compound NOT metabolized | Compound NOT metabolized | Compound NOT metabolized | Compound metabolized | Compound NOT metabolized | Compound NOT metabolized | Compound NOT metabolized | Compound NOT metabolized | – | Compound NOT metabolized | Compound NOT metabolized | Compound metabolized | Compound NOT metabolized
COc1ccc2c(c1OC)C(=O)O[C@@H]2[C@H]1c2c(cc3c(c2OC)OCO3)CCN1C [NOSCAPINE] | Compound NOT metabolized | Compound metabolized | Compound metabolized | Compound NOT metabolized | Compound metabolized | Compound NOT metabolized | Compound metabolized | Compound metabolized | Compound metabolized | Compound metabolized | Compound metabolized | Compound metabolized | Compound metabolized | Compound metabolized | – | Compound metabolized | Compound metabolized | Compound metabolized | Compound metabolized | –
CCCc1nc(C(C)(C)O)c(C(=O)OCc2oc(=O)oc2C)n1Cc1ccc(-c2ccccc2-c2nnn[nH]2)cc1 [OLMESARTAN MEDOXOMIL] | – | – | Compound metabolized | Compound metabolized | Compound metabolized | Compound metabolized | Compound metabolized | Compound metabolized | Compound metabolized | Compound metabolized | Compound metabolized | Compound metabolized | – | Compound metabolized | – | Compound metabolized | Compound metabolized | – | Compound metabolized | Compound metabolized
CC(=O)SCC(Cc1ccccc1)C(=O)NCC(=O)OCc1ccccc1 (stereo not given) [RACECADOTRIL] | Compound metabolized | Compound metabolized | – | Compound NOT metabolized | Compound metabolized | Compound metabolized | Compound metabolized | Compound NOT metabolized | – | Compound metabolized | Compound metabolized | Compound metabolized | – | – | Compound metabolized | Compound metabolized | Compound NOT metabolized | – | Compound metabolized | –
